Test results reported in ChEMBL document CHEMBL1201862, “PubChem BioAssay data set” (2004).
“And” between values parts separate entries of the source, which are not always exact repeats. Identical values can stand only once.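 A five-concentration, 48-hour dose response in 96-well plates underlies each endpoint, interpolated linearly between surrounding concentrations. GI50 is the concentration that inhibits growth by half.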 The source made the active and inactive calls. Rule as the data show it: active = GI50 up to about 1.1 µM and inactive = higher.

Legend:
Test in all cases: NCI-60 cell line screen, 48 h
HCC 2998 = test system: HCC 2998
LOX IMVI = test system: LOX IMVI
SW-620 = test system: SW-620
CAKI-1 = test system: CAKI-1
IGROV-1 = test system: IGROV-1
HOP-62 = test system: HOP-62
NCI-H226 = test system: NCI-H226
OVCAR-5 = test system: OVCAR-5
U-251 = test system: U-251
UACC-257 = test system: UACC-257
A498 = test system: A498
SK-MEL-2 = test system: SK-MEL-2
KM12 = test system: KM12
OVCAR-3 = test system: OVCAR-3
OVCAR-8 = test system: OVCAR-8
SK-MEL-5 = test system: SK-MEL-5
SK-OV-3 = test system: SK-OV-3
EKVX = test system: EKVX
Hs-578T = test system: Hs-578T
NCI-H460 = test system: NCI-H460

| Structure (SMILES) | GI50 (HCC 2998) | GI50 (LOX IMVI) | GI50 (SW-620) | GI50 (CAKI-1) | GI50 (IGROV-1) | GI50 (HOP-62) | GI50 (NCI-H226) | GI50 (OVCAR-5) | GI50 (U-251) | GI50 (UACC-257) | GI50 (A498) | GI50 (SK-MEL-2) | GI50 (KM12) | GI50 (OVCAR-3) | GI50 (OVCAR-8) | GI50 (SK-MEL-5) | GI50 (SK-OV-3) | GI50 (EKVX) | GI50 (Hs-578T) | GI50 (NCI-H460) |
| --- | --- | --- | --- | --- | --- | --- | --- | --- | --- | --- | --- | --- | --- | --- | --- | --- | --- | --- | --- | --- |
| COc1cc2c(cc1OC)C1Cc3cc(OC)c(OC)cc3C(C2)N1C | > 75 µM (inactive) | 48 µM (inactive) | > 100 µM (inactive) | 85.1 µM (inactive) | > 75 µM (inactive) | > 75 µM (inactive) and 44.3 µM (inactive) | > 75 µM (inactive) | > 100 µM (inactive) | > 100 µM (inactive) | > 100 µM (inactive) | > 75 µM (inactive) | > 75 µM (inactive) | 44.3 µM (inactive) | > 100 µM (inactive) | > 100 µM (inactive) | > 100 µM (inactive) | > 75 µM (inactive) | > 100 µM (inactive) | > 75 µM (inactive) |  |
| O=C1C/C(=N/c2ccc(Cl)cc2)C(c2ccccc2)N1c1ccccc1 (configuration not stated) | > 100 µM (inactive) | 6.05 µM (inactive) | 10.2 µM (inactive) | 1.59 µM (inactive) | 18.2 µM (inactive) | 32.1 µM (inactive) | 10.1 µM (inactive) |  | 32.7 µM (inactive) | 17.4 µM (inactive) | 19.3 µM (inactive) | 2.7 µM (inactive) | 6.61 µM (inactive) | 2.99 µM (inactive) |  | 5.9 µM (inactive) | 5.92 µM (inactive) | > 100 µM (inactive) | 6.12 µM (inactive) | 29 µM (inactive) |
| O=c1c2nn3c(=O)n(-c4ccccc4)c(=O)c3nn2c(=O)n1-c1ccccc1 | > 100 µM (inactive) | > 100 µM (inactive) | > 100 µM (inactive) | > 100 µM (inactive) | > 100 µM (inactive) | > 100 µM (inactive) | > 100 µM (inactive) | > 100 µM (inactive) | > 100 µM (inactive) | > 100 µM (inactive) | 50.4 µM (inactive) | > 100 µM (inactive) | > 100 µM (inactive) | > 100 µM (inactive) | > 100 µM (inactive) | > 100 µM (inactive) | > 100 µM (inactive) | > 100 µM (inactive) | > 100 µM (inactive) | > 100 µM (inactive) |
| C=C1C(=O)O[C@H]2C1C[C@@H](O)/C(C)=C/CC[C@@]1(C)O[C@H]21 (some centres not stated) | 33.1 µM (inactive) | 9.16 µM (inactive) | 4.81 µM (inactive) | 3.03 µM (inactive) | 12.7 µM (inactive) | > 59.6 µM (inactive) | > 54.3 µM (inactive) | > 39.4 µM (inactive) | 24.4 µM (inactive) | 13.1 µM (inactive) | 25 µM (inactive) | 24.3 µM (inactive) | > 100 µM (inactive) | 3.27 µM (inactive) | 15.2 µM (inactive) | 16.1 µM (inactive) | 49.7 µM (inactive) | 12.2 µM (inactive) | 31.3 µM (inactive) | 22.4 µM (inactive) |
| Cc1ccc(-n2cc(-c3ccc(Cl)cc3)c3c2N=CN2N=C(c4ccco4)NC32)cc1 (configuration not stated) | > 100 µM (inactive) | 21.9 µM (inactive) | 8.87 µM (inactive) | 10.1 µM (inactive) | 7.62 µM (inactive) | 7.64 µM (inactive) | 11.2 µM (inactive) | > 100 µM (inactive) | 5.46 µM (inactive) | > 100 µM (inactive) | 4.22 µM (inactive) | 10 µM (inactive) |  | 6.49 µM (inactive) | 6.28 µM (inactive) | > 100 µM (inactive) | 4.13 µM (inactive) | 17.7 µM (inactive) | 2.05 µM (inactive) | 4.49 µM (inactive) |
| Cc1cccc2oc3c(c(=O)c12)CC(O)C(C)(C)O3 (configuration not stated) | > 100 µM (inactive) | 86.5 µM (inactive) | 51.6 µM (inactive) | > 100 µM (inactive) | > 100 µM (inactive) | > 100 µM (inactive) | > 100 µM (inactive) | > 100 µM (inactive) | > 100 µM (inactive) | > 100 µM (inactive) | > 100 µM (inactive) | > 100 µM (inactive) | > 100 µM (inactive) | 99.1 µM (inactive) |  | > 100 µM (inactive) | > 100 µM (inactive) | > 100 µM (inactive) | > 100 µM (inactive) | > 100 µM (inactive) |
| COc1cc2c[n+](C)c3c4ccccc4ccc3c2cc1OC | 4.81 µM (inactive) | 12.9 µM (inactive) | 1.95 µM (inactive) | 55.3 µM (inactive) |  | 18.6 µM (inactive) | 2.94 µM (inactive) | 26.7 µM (inactive) | 0.726 µM (active) | 3.73 µM (inactive) | 37.4 µM (inactive) | 5.69 µM (inactive) | 0.452 µM (active) | 6.05 µM (inactive) | 2.71 µM (inactive) | 2.87 µM (inactive) | 6.08 µM (inactive) | 2.54 µM (inactive) | 2.51 µM (inactive) | 10 µM (inactive) |
| COc1cc(/C=C/c2nc(N)nnc2C)cc(OC)c1OC | 9.86 µM (inactive) | 7.31 µM (inactive) | > 57.8 µM (inactive) | 6.56 µM (inactive) | 15.6 µM (inactive) | 13 µM (inactive) | 10.1 µM (inactive) | > 38.5 µM (inactive) | 18.4 µM (inactive) | 37.7 µM (inactive) | 18 µM (inactive) | > 37.9 µM (inactive) | 10.9 µM (inactive) |  | 13 µM (inactive) | 14.1 µM (inactive) | 31.5 µM (inactive) | 18.1 µM (inactive) | 11.9 µM (inactive) | 13.8 µM (inactive) |
| CC(C)(C)OC(=O)N1C(C2=COc3ccccc3O2)=COc2ccccc21 | 16.2 µM (inactive) | 17.5 µM (inactive) | 24.3 µM (inactive) | 38 µM (inactive) | 9.75 µM (inactive) | 15.5 µM (inactive) | 23.8 µM (inactive) | 33.3 µM (inactive) | 32.1 µM (inactive) | 23.9 µM (inactive) | 17.1 µM (inactive) | 22 µM (inactive) | 29.9 µM (inactive) | 21.1 µM (inactive) | 28.3 µM (inactive) | 19.1 µM (inactive) | 29 µM (inactive) | 16.8 µM (inactive) | 41.5 µM (inactive) | 28.9 µM (inactive) |
| CC(=O)OC(/C=C/c1ccccc1)P1(=O)N(CC(C)(C)C)[C@@H]2CCCC[C@H]2N1CC(C)(C)C (some centres not stated) | 5 µM (inactive) and 2.77 µM (inactive) | 11.2 µM (inactive) and 9.42 µM (inactive) | 9.62 µM (inactive) and 5.27 µM (inactive) | 12.8 µM (inactive) and 8.99 µM (inactive) | 5.11 µM (inactive) and 6.78 µM (inactive) | 16.2 µM (inactive) and 13.1 µM (inactive) | 6.87 µM (inactive) and 10.9 µM (inactive) | 10.7 µM (inactive) and 9.86 µM (inactive) | 8.81 µM (inactive) and 6.38 µM (inactive) | 4.07 µM (inactive) and 3.3 µM (inactive) | 8.28 µM (inactive) | 11.1 µM (inactive) and 5.96 µM (inactive) | 6.3 µM (inactive) and 6.65 µM (inactive) |  | 6.56 µM (inactive) and 7.1 µM (inactive) | 5.26 µM (inactive) and 6.3 µM (inactive) | 15.2 µM (inactive) and 8.71 µM (inactive) | 5.27 µM (inactive) and 5.68 µM (inactive) | 6.92 µM (inactive) and 8.67 µM (inactive) | 6.24 µM (inactive) and 4.84 µM (inactive) |
